The values that follow come from ChEMBL document CHEMBL3399947, “Structure activity relationship of selective GABA uptake inhibitors” (Bioorg Med Chem, 2015).

Common to all, as to type: cell-based
Holding throughout (conditions): read-out: IC50

The target in assay [1] is Sodium- and chloride-dependent GABA transporter 1 (Mus musculus, UniProt P31648). Description: Inhibition of mouse mGAT1 expressed in HEK293 cells assessed as inhibition of [3H]GABA uptake after 3 mins incubation by TopCount microplate scintillation counting analysis.
For the next assay, the target named is T1, GABA transporter 2 (Mus musculus, UniProt P31651).
T1 sequence (P31651 whole entry): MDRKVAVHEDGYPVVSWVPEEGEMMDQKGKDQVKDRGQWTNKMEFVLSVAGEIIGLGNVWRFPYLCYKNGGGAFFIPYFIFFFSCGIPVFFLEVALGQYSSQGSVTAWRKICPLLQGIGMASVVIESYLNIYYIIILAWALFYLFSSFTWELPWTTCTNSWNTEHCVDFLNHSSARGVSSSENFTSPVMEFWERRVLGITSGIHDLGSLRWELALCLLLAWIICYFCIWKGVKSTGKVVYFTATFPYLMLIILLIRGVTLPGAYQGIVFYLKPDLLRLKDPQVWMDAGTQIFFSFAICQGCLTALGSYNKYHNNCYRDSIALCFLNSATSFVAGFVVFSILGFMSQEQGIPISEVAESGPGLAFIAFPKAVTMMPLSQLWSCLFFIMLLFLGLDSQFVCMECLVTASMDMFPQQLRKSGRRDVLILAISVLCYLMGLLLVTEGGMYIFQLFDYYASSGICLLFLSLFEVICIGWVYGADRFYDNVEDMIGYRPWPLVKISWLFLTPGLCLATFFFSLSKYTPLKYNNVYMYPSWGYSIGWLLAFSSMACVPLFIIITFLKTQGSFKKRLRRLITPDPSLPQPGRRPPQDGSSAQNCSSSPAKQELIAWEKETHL
Kind of assay: Inhibition of mouse mGAT2 expressed in HEK293 cells assessed as inhibition of [3H]GABA uptake after 3 mins incubation by TopCount microplate scintillation counting analysis.

The next assay has as its target T2, GABA transporter 3 (Mus musculus, UniProt P31649).
T2 sequence (P31649 whole entry): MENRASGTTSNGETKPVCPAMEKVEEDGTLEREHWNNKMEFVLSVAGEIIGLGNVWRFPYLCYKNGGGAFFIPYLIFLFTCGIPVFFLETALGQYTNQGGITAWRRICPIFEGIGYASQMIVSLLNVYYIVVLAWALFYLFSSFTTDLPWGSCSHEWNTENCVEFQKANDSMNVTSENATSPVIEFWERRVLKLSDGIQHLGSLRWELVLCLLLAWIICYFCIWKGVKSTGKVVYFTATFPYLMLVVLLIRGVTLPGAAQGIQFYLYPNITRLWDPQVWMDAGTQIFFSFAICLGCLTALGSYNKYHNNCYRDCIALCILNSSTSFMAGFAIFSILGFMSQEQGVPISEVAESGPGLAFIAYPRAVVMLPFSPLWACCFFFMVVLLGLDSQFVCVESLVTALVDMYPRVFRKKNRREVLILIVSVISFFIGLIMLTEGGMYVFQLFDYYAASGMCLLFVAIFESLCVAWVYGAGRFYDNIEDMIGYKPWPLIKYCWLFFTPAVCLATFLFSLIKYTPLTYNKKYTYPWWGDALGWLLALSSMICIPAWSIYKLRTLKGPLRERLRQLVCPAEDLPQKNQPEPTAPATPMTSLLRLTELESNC
Description: Inhibition of mouse mGAT3 expressed in HEK293 cells assessed as inhibition of [3H]GABA uptake after 3 mins incubation by TopCount microplate scintillation counting analysis.

The next assay addresses T3, GABA transporter 4 (Mus musculus, UniProt P31650).
T3 sequence (P31650 whole entry): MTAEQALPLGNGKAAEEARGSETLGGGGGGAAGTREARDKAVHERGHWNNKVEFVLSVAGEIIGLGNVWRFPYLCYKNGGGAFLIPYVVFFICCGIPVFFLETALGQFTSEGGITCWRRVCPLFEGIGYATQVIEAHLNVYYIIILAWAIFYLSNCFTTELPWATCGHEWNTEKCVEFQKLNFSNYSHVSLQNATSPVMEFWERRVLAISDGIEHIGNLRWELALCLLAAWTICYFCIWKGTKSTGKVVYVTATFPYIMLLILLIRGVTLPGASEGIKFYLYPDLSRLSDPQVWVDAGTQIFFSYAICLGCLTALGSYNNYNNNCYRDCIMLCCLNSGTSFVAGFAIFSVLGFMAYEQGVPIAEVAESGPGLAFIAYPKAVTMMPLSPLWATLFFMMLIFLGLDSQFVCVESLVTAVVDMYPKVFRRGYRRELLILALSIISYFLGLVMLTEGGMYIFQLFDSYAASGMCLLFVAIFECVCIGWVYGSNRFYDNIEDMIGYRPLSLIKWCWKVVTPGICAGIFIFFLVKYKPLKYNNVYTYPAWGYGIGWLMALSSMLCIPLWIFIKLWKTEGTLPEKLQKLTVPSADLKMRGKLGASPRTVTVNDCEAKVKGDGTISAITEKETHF
Kind of assay: Inhibition of mouse mGAT4 expressed in HEK293 cells assessed as inhibition of [3H]GABA uptake after 3 mins incubation by TopCount microplate scintillation counting analysis.

Consider `Cc1ccsc1C(=CCCN(C)CCC(=O)O)c1sccc1C`, for which the 50% inhibitory concentration (IC50) turned out to be 966 µM in assay [1], 937 µM on GABA transporter 2, 343 µM at GABA transporter 3 and 1280 µM at GABA transporter 4.

Regarding `CNCCC=C1c2ccccc2CCc2ccccc21` [NORTRIPTYLINE], the IC50 was 389 µM in assay [1], 171 µM at GABA transporter 2, 270 µM on GABA transporter 3 and 249 µM on GABA transporter 4.

Regarding `Cc1ccsc1C(=CCCNCCC(=O)O)c1sccc1C`, the IC50 in assay [1] is 171 µM; on GABA transporter 2 it was 504 µM; at GABA transporter 3 it was 796 µM; on GABA transporter 4, 1730 µM.

Regarding `Cc1ccsc1C(=CCCN1CCNC(C(=O)O)C1)c1sccc1C` (racemic), the IC50 in assay [1] is 95.6 µM; on GABA transporter 2 it was more than 1000 µM; at GABA transporter 3, more than 1000 µM; on GABA transporter 4, more than 1000 µM.

With `CN(CCOC(c1ccc(C(F)(F)F)cc1)c1ccc(C(F)(F)F)cc1)[C@@H]1CCCC[C@H]1C(=O)O` (racemic), the IC50 was 426 µM in assay [1], 138 µM on GABA transporter 2, 433 µM at GABA transporter 3 and 392 µM on GABA transporter 4.

Regarding `C=CCN1CCN(CCC=C(c2sccc2C)c2sccc2C)CC(C(=O)O)C1` (centres undefined), the IC50 in assay [1] amounted to 549 µM; on GABA transporter 2, 160 µM; at GABA transporter 3, 1100 µM; on GABA transporter 4, 563 µM.

For `O=C(O)C1CN(CCO)CCN(CCON=C(c2ccccc2)c2ccccc2)C1` (centres undefined), the IC50 (in assay [1]; at GABA transporter 2; at GABA transporter 3; on GABA transporter 4) was more than 1000 µM in each case.

For `CN(CCC=C1c2ccccc2CCc2ccccc21)[C@@H]1CCCC[C@@H]1C(=O)O`, the IC50 in assay [1] was 1820 µM; at GABA transporter 2, 88.9 µM; at GABA transporter 3 it was 1030 µM; at GABA transporter 4, 1450 µM.

In the case of `CNCCC=C(c1sccc1C)c1sccc1C`, the IC50 in assay [1] was found to be 160 µM; on GABA transporter 2, 179 µM; on GABA transporter 3, 137 µM; on GABA transporter 4 it was 254 µM.

In the case of `CCOC(=O)[C@H]1CCCC[C@H]1N(C)CCOC(c1ccc(C(F)(F)F)cc1)c1ccc(C(F)(F)F)cc1`, the IC50 was determined as 425 µM in assay [1], 325 µM at GABA transporter 2, 511 µM at GABA transporter 3 and 1210 µM at GABA transporter 4.

For `CN(CCON=C(c1ccccc1)c1ccccc1)[C@@H]1CCCC[C@H]1C(=O)O`, the IC50 in assay [1] was more than 2000 µM; at GABA transporter 2 it was 880 µM; at GABA transporter 3 (hek293), more than 2000 µM; on GABA transporter 4 (hek293), more than 2000 µM.

For the compound `CN(CCC=C1c2ccccc2CCc2ccccc21)[C@@H]1CCCC[C@@H]1CO`, the 50% inhibitory concentration (IC50) was 286 µM in assay [1], 50 µM on GABA transporter 2, 153 µM at GABA transporter 3 and 171 µM at GABA transporter 4.

Regarding `CN(CCON=C(c1ccccc1)c1ccccc1)[C@H]1CCCC[C@H]1C(=O)O`, the IC50 in assay [1] is more than 1000 µM; at GABA transporter 2, 417 µM; at GABA transporter 3 it was more than 1000 µM; on GABA transporter 4, more than 1000 µM.

As for `Cc1ccsc1C(=CCCN(C)[C@@H]1CCCC[C@@H]1CO)c1sccc1C`, the IC50 in assay [1] amounted to 239 µM; at GABA transporter 2, 34.8 µM; on GABA transporter 3, 133 µM; on GABA transporter 4 it was 178 µM.

Turning to `CN(CCON=C(c1ccccc1)c1ccccc1)C1CCCC=C1C(=O)O` (centres undefined), the concentration for half-maximal inhibition (IC50) was more than 2000 µM in assay [1], 814 µM at GABA transporter 2, more than 2000 µM at GABA transporter 3 and more than 2000 µM on GABA transporter 4.

Consider `CN(CCC=C1c2ccccc2CCc2ccccc21)CCC(=O)O`, for which the concentration for half-maximal inhibition (IC50) in assay [1] came out at 77.7 µM; at GABA transporter 2, 735 µM; at GABA transporter 3, 1050 µM; on GABA transporter 4, 1700 µM.

Consider `CNCCOC(c1ccc(C(F)(F)F)cc1)c1ccc(C(F)(F)F)cc1`, for which the concentration for half-maximal inhibition (IC50) came to 163 µM in assay [1], 190 µM at GABA transporter 2, 58 µM on GABA transporter 3 and 143 µM at GABA transporter 4.

As to `CN(CCOC(c1ccc(C(F)(F)F)cc1)c1ccc(C(F)(F)F)cc1)[C@H]1CCCC[C@H]1C(=O)O`, the half-inhibitory concentration (IC50) was 631 µM in assay [1], 90 µM on GABA transporter 2, 392 µM at GABA transporter 3 and 303 µM on GABA transporter 4.

On to `CCN1CCNCC1C(=O)O` (racemic), for which the IC50 (in assay [1]; on GABA transporter 2; at GABA transporter 3; on GABA transporter 4) was more than 1000 µM in each case.

Take `CN(CCC=C1c2ccccc2CCc2ccccc21)[C@H]1CCCC[C@H]1CO`: the 50% inhibitory concentration (IC50) came to 191 µM in assay [1], 28.3 µM on GABA transporter 2, 148 µM on GABA transporter 3 and 126 µM on GABA transporter 4.

Consider `O=C(O)C1CNCCN1CCON=C(c1ccccc1)c1ccccc1` (racemic), for which the IC50 (in assay [1]; on GABA transporter 2; at GABA transporter 3; on GABA transporter 4) was more than 1000 µM in each case.

On to `CN(CCOC(c1ccc(C(F)(F)F)cc1)c1ccc(C(F)(F)F)cc1)[C@@H]1CCCC[C@H]1C(=O)O`, for which the IC50 is 421 µM in assay [1], 97.1 µM on GABA transporter 2, 393 µM at GABA transporter 3 and 299 µM at GABA transporter 4.

Take `CN(CCOC(c1ccc(C(F)(F)F)cc1)c1ccc(C(F)(F)F)cc1)[C@@H]1CCCC[C@@H]1CO`: the IC50 in assay [1] was determined as 223 µM; at GABA transporter 2, 63.3 µM; at GABA transporter 3, 119 µM; on GABA transporter 4 it was 866 µM.

In the case of `Cc1ccsc1C(=CCCN1CCN(C(=N)N)CC(C(=O)O)C1)c1sccc1C` (centres undefined), the IC50 (in assay [1]; on GABA transporter 2; on GABA transporter 3; at GABA transporter 4) was more than 1000 µM throughout.

Regarding `CN(CCCS(=O)(=O)O)CCON=C(c1ccccc1)c1ccccc1`, the half-maximal inhibitory concentration (IC50) in assay [1] was 828 µM; at GABA transporter 2, more than 1000 µM; on GABA transporter 3, more than 1000 µM; on GABA transporter 4, more than 1000 µM.

Turning to `Cc1ccsc1C(=CCCN(C)[C@H]1CCCC[C@H]1C(=O)O)c1sccc1C`, the half-maximal inhibitory concentration (IC50) in assay [1] came out at 562 µM; on GABA transporter 2 it was 21.6 µM; on GABA transporter 3, 941 µM; at GABA transporter 4, 289 µM.

Consider `O=C(O)CCNCCON=C(c1ccccc1)c1ccccc1`, for which the IC50 in assay [1] is 6.99 µM; at GABA transporter 2 it was more than 1000 µM; at GABA transporter 3 it was 290 µM; at GABA transporter 4 it was 310 µM.

On to `CN(CCOC(c1ccc(C(F)(F)F)cc1)c1ccc(C(F)(F)F)cc1)C1CCCC=C1C(=O)O` (centres undefined), for which the IC50 in assay [1] is more than 1000 µM; on GABA transporter 2, 107 µM; on GABA transporter 3 it was more than 1000 µM; at GABA transporter 4, more than 1000 µM.

For the compound `Cc1ccsc1C(=CCCN1CCC[C@@H](C(=O)O)C1)c1sccc1C` [TIAGABINE], the half-maximal inhibitory concentration (IC50) at GABA transporter 3 is more than 300 µM.

For `COc1ccccc1C1(O)CCN(CCCn2c3ccccc3c3ccccc32)CC1`, the concentration for half-maximal inhibition (IC50) came out at 1.4 µM at GABA transporter 2 and 41 µM at GABA transporter 3.

As for `CN(CCON=C(c1ccccc1)c1ccccc1)[C@@H]1CCCC[C@H]1C(=O)O` (racemic), the IC50 is 1100 µM on GABA transporter 2, more than 2000 µM on GABA transporter 3 and more than 2000 µM at GABA transporter 4.

As to `COc1ccc(C(OCCN2CCC[C@H](C(=O)O)C2)(c2ccc(OC)cc2)c2ccc(OC)cc2)cc1`, the IC50 on GABA transporter 2 came to 22 µM.

What is called IC50 is the concentration that inhibits the measured activity by half.
